Laboratory results: DBAASP
In brackets after ≈: the same amount, converted by molar mass. Each block holds one compound with its values, some of them ahead of it.

Columns and labels:
Experiment in all cases: ≥ marks a high value that may be exact or a test limit, other limits are often not marked, values filed in µg/mL are converted to µM
Bacillus subtilis = tested on: Bacillus subtilis
[1] = tested on: Candida albicans ATCC 2002
[2] = tested on: Escherichia coli ATCC 25922
[3] = tested on: Staphylococcus aureus ATCC 2592
Escherichia coli = tested on: Escherichia coli
Klebsiella pneumoniae = tested on: Klebsiella pneumoniae
Micrococcus luteus = tested on: Micrococcus luteus
Proteus mirabilis = tested on: Proteus mirabilis
Pseudomonas aeruginosa = tested on: Pseudomonas aeruginosa
Salmonella typhimurium = tested on: Salmonella typhimurium
Shigella dysenteriae = tested on: Shigella dysenteriae
Staphylococcus aureus = tested on: Staphylococcus aureus
[4] = tested on: Staphylococcus epidermidis
[5] = tested on: Bacillus subtilis ATCC 6633
Bacillus subtilis 168 = tested on: Bacillus subtilis 168
Escherichia coli B = tested on: Escherichia coli B
[6] = tested on: Staphylococcus aureus ATCC 6538
[7] = tested on: Pseudomonas aeruginosa ATCC 9027
Acinetobacter baumannii = tested on: Acinetobacter baumannii
Enterococcus faecalis = tested on: Enterococcus faecalis

SMILES: CC[C@H](C)[C@@H]1NC(=O)[C@H](CO)NC(=O)[C@H](CCCCN)NC(=O)[C@H]([C@@H](C)O)NC(=O)[C@H](Cc2c[nH]c3ccccc23)NC(=O)[C@@H](NC(=O)CNC(=O)[C@H](CCCCN)NC(=O)[C@H](CC(C)C)NC(=O)[C@H](C)NC(=O)[C@H](C)N)CSSC[C@@H](C(=O)N[C@@H](Cc2ccccc2)C(=O)NCC(=O)N[C@@H](Cc2ccccc2)C(=O)O)NC(=O)[C@@H]2CCCN2C(=O)[C@H](CCCCN)NC(=O)[C@@H]2CCCN2C(=O)[C@@H]2CCCN2C1=O [AALKGCWTKSIPPKPCFGF]
MIC (Bacillus subtilis): 1.19 µM (≈ 2.44 µg/mL)
MIC [1]: 2.32 µM (≈ 4.76 µg/mL)
MIC [2]: 1.38 µM (≈ 2.84 µg/mL)
MIC [3]: 1.03 µM (≈ 2.12 µg/mL)

SMILES: CC(C)C[C@H](NC(=O)[C@@H](N)Cc1ccccc1)C(=O)NCC(=O)N[C@@H](C)C(=O)N[C@@H](Cc1c[nH]c2ccccc12)C(=O)N[C@@H](Cc1ccccc1)C(=O)N[C@@H](CCCCN)C(=O)N[C@H](C(=O)N[C@@H](C)C(=O)N[C@@H](CO)C(=O)N[C@@H](CCCCN)C(=O)O)C(C)C [FLGAWFKVASK]
MIC (Bacillus subtilis): ≥ 160 µM
MIC (Escherichia coli): > 160 µM
MIC (Klebsiella pneumoniae): > 160 µM
MIC (Micrococcus luteus): ≥ 160 µM
MIC (Proteus mirabilis): ≥ 160 µM
MIC (Pseudomonas aeruginosa): > 160 µM
MIC (Salmonella typhimurium): ≥ 160 µM
MIC (Shigella dysenteriae): ≥ 160 µM
MIC (Staphylococcus aureus): > 160 µM
MIC [4]: ≥ 160 µM

SMILES: CC[C@H](C)[C@H](NC(=O)[C@@H]1CCCN1C(=O)[C@H](CC(C)C)NC(=O)[C@@H](N)Cc1ccccc1)C(=O)N[C@H](C(=O)NCC(=O)N[C@@H](CCCCN)C(=O)N[C@@H](CC(C)C)C(=O)N[C@@H](CC(C)C)C(=O)N[C@@H](CO)C(=O)NCC(=O)N[C@@H](CC(C)C)C(=O)N[C@@H](CO)C(=O)NCC(=O)N[C@@H](CC(C)C)C(=O)N[C@@H](CC(C)C)C(N)=O)C(C)C [FLPIVGKLLSGLSGLL]
MIC [1]: 4 µM (≈ 6.5 µg/mL)
MIC [2]: 1.84 µM (≈ 3 µg/mL)
MIC (Shigella dysenteriae): 0.922 µM (≈ 1.5 µg/mL)
MIC [3]: 1.23 µM (≈ 2 µg/mL)

SMILES: CC(C)C[C@H](NC(=O)[C@H](C)NC(=O)CNC(=O)[C@H](Cc1c[nH]c2ccccc12)NC(=O)[C@@H](N)Cc1ccccc1)C(=O)N[C@@H](Cc1ccccc1)C(=O)N[C@@H](CCCCN)C(=O)N[C@H](C(=O)N[C@@H](C)C(=O)N[C@@H](CO)C(=O)N[C@@H](CCCCN)C(=O)O)C(C)C [FWGALFKVASK]
MIC (Bacillus subtilis): ≥ 39.9 µM
MIC (Escherichia coli): 79.8 µM (≈ 100 µg/mL)
MIC (Klebsiella pneumoniae): 79.8 µM (≈ 100 µg/mL)
MIC (Micrococcus luteus): ≥ 79.8 µM
MIC (Proteus mirabilis): ≥ 160 µM
MIC (Pseudomonas aeruginosa): > 160 µM
MIC (Salmonella typhimurium): ≥ 160 µM
MIC (Shigella dysenteriae): ≥ 160 µM
MIC (Staphylococcus aureus): 19.9 µM (≈ 25 µg/mL)
MIC [4]: ≥ 79.8 µM

SMILES: CC(C)C[C@H](NC(=O)[C@H](CCCCN)NC(=O)[C@H](CCCCN)NC(=O)[C@H](C)NC(=O)[C@H](CC(C)C)NC(=O)[C@H](CCCCN)NC(=O)[C@H](CCCCN)NC(=O)[C@H](C)NC(=O)[C@H](Cc1ccccc1)NC(=O)[C@H](CCCCN)NC(=O)[C@H](CCCCN)NC(=O)[C@H](Cc1ccccc1)NC(=O)[C@H](CC(C)C)NC(=O)[C@H](CCCCN)NC(=O)[C@@H](NC(=O)[C@H](CCCCN)NC(=O)[C@H](CCCCN)NC(=O)[C@H](CCCCN)NC(=O)[C@H](Cc1ccccc1)NC(=O)[C@H](CC(C)C)NC(=O)[C@H](CCCCN)NC(=O)[C@H](Cc1c[nH]c2ccccc12)NC(=O)[C@@H](N)CCCCN)[C@@H](C)O)C(=O)O [KWKLFKKKTKLFKKFAKKLAKKL]
MIC [7]: > 69.5 µM
MIC [6]: 3.47 µM (≈ 10 µg/mL)

SMILES: CC(C)C[C@H](NC(=O)[C@H](C)NC(=O)CNC(=O)[C@H](CC(C)C)NC(=O)[C@@H](N)Cc1c[nH]c2ccccc12)C(=O)N[C@@H](Cc1ccccc1)C(=O)N[C@@H](CCCCN)C(=O)N[C@H](C(=O)N[C@@H](C)C(=O)N[C@@H](CO)C(=O)N[C@@H](CCCCN)C(=O)O)C(C)C [WLGALFKVASK]
MIC (Bacillus subtilis): ≥ 82 µM
MIC (Escherichia coli): 164 µM (≈ 200 µg/mL)
MIC (Klebsiella pneumoniae): > 164 µM
MIC (Micrococcus luteus): ≥ 82 µM
MIC (Proteus mirabilis): ≥ 164 µM
MIC (Pseudomonas aeruginosa): > 164 µM
MIC (Salmonella typhimurium): ≥ 164 µM
MIC (Shigella dysenteriae): ≥ 164 µM
MIC (Staphylococcus aureus): 82 µM (≈ 100 µg/mL)
MIC [4]: ≥ 164 µM

Results, then the compound that gave them:

MIC [5]: 27.2 µM (≈ 50 µg/mL)
MIC [3]: 6.79 µM (≈ 12.5 µg/mL)
SMILES: CC[C@H](C)[C@H](NC(=O)[C@H](CCCCN)NC(=O)[C@@H]1CCCN1C(=O)[C@H](Cc1ccccc1)NC(=O)[C@@H](NC(=O)[C@H](CO)NC(=O)CNC(=O)[C@H](CC(C)C)NC(=O)[C@H](C)NC(=O)[C@H](CCCCN)NC(=O)[C@H](CC(C)C)NC(=O)[C@H](C)NC(=O)[C@@H](NC(=O)[C@@H]1CCCN1C(=O)[C@H](CC(C)C)NC(=O)[C@@H](N)Cc1ccccc1)[C@@H](C)CC)[C@@H](C)CC)C(=O)N[C@@H](CC(C)C)C(N)=O [FLPIALKALGSIFPKIL]

MIC (Bacillus subtilis): 20.2 µM (≈ 50 µg/mL)
MIC [1]: 10.1 µM (≈ 25 µg/mL)
MIC [2]: 10.1 µM (≈ 25 µg/mL)
MIC [3]: 5.04 µM (≈ 12.5 µg/mL)
SMILES: CC[C@H](C)[C@H](NC(=O)CNC(=O)[C@H](CO)NC(=O)[C@H](CC(C)C)NC(=O)[C@@H](N)Cc1ccccc1)C(=O)N[C@@H](CC(C)C)C(=O)N[C@@H](CCCCN)C(=O)N[C@@H](CC(C)C)C(=O)N[C@@H](C)C(=O)N[C@@H](Cc1ccccc1)C(=O)N[C@@H](CCCCN)C(=O)N[C@H](C(=O)N1CCC[C@H]1C(=O)N[C@@H](CO)C(=O)N[C@H](C(=O)N[C@@H](CC(C)C)C(=O)N[C@H]1CSSC[C@@H](C(=O)O)NC(=O)[C@H](CC(N)=O)NC(=O)[C@H](CCCCN)NC(=O)[C@H](CC(C)C)NC(=O)[C@H](C(C)C)NC(=O)[C@H](C)NC1=O)C(C)C)[C@@H](C)CC [FLSGILKLAFKIPSVLCAVLKNC]

MIC (Bacillus subtilis 168): 0.62 µM (≈ 1.26 µg/mL)
MIC (Escherichia coli B): 1 µM (≈ 2.04 µg/mL)
MIC (Pseudomonas aeruginosa): 22 µM (≈ 44.9 µg/mL)
MIC (Staphylococcus aureus): 40 µM (≈ 81.6 µg/mL)
SMILES: CC[C@H](C)[C@H](NC(=O)[C@H](CO)NC(=O)[C@H](CC(C)C)NC(=O)[C@H](Cc1ccccc1)NC(=O)CN)C(=O)N[C@@H](CC(C)C)C(=O)N[C@@H](CCCCN)C(=O)N[C@@H](CCCCN)C(=O)N[C@H](C(=O)N[C@@H](CC(C)C)C(=O)N1CCC[C@H]1C(=O)N[C@@H](CCCCN)C(=O)N[C@H](C(=O)N[C@@H](CCSC)C(=O)N[C@@H](C)C(=O)N[C@@H](Cc1cnc[nH]1)C(=O)N[C@@H](CCSC)C(=O)N[C@@H](CCCCN)C(N)=O)C(C)C)C(C)C [GFLSILKKVLPKVMAHMK]

MIC (Bacillus subtilis 168): 3.7 µM (≈ 5.43 µg/mL)
MIC (Escherichia coli B): ≥ 45 µM
MIC (Pseudomonas aeruginosa): > 100 µM
MIC (Staphylococcus aureus): > 100 µM
SMILES: CC[C@H](C)[C@H](NC(=O)[C@H](Cc1cnc[nH]1)NC(=O)[C@H](CCCCN)NC(=O)[C@H](CC(C)C)NC(=O)[C@H](CCCCN)NC(=O)[C@H](CO)NC(=O)[C@H](CCSC)NC(=O)[C@H](Cc1c[nH]c2ccccc12)NC(=O)[C@H](CCCCN)NC(=O)CN)C(=O)N[C@@H](CC(C)C)C(=O)N[C@@H](CCCCN)C(N)=O [GKWMSKLKHILK]

MIC [6]: 2.4 µM (≈ 5.91 µg/mL)
SMILES: CC(C)C[C@H](NC(=O)CNC(=O)[C@@H](NC(=O)[C@@H]1CCCN1C(=O)[C@H](CC(C)C)NC(=O)CNC(=O)[C@H](CC(N)=O)NC(=O)[C@H](CC(N)=O)NC(=O)[C@H](Cc1ccc(O)cc1)NC(=O)[C@@H](NC(=O)[C@H](CCCN=C(N)N)NC(=O)[C@H](CS)NC(=O)[C@H](CCCN=C(N)N)NC(=O)[C@H](Cc1cnc[nH]1)NC(=O)[C@H](CCCCN)NC(=O)[C@@H](N)CCCCN)C(C)C)[C@@H](C)O)C(=O)N[C@@H](Cc1ccc(O)cc1)C(=O)N[C@@H](CCCN=C(N)N)C(=O)N[C@@H](Cc1c[nH]c2ccccc12)C(=O)N[C@@H](CS)C(N)=O [KKHRCRVYNNGLPTGLYRWC]

MIC [7]: > 85.8 µM
MIC [6]: > 85.8 µM
SMILES: CC[C@H](C)[C@H](NC(=O)[C@H](CC(N)=O)NC(=O)[C@H](CCCN=C(N)N)NC(=O)CNC(=O)[C@H](CCSC)NC(=O)[C@H](CCCCN)NC(=O)[C@H](CCC(=O)O)NC(=O)[C@@H](NC(=O)[C@H](CCCCN)NC(=O)[C@H](CC(C)C)NC(=O)[C@H](Cc1ccccc1)NC(=O)[C@@H](NC(=O)[C@H](CCCCN)NC(=O)[C@H](CCC(=O)O)NC(=O)[C@H](CCCCN)NC(=O)[C@@H]1CCCN1C(=O)[C@@H](N)CCSC)C(C)C)[C@@H](C)CC)C(=O)N[C@@H](CCCN=C(N)N)C(=O)N[C@@H](CC(N)=O)C(N)=O [MPKEKVFLKIEKMGRNIRN]

MIC (Acinetobacter baumannii): 0.6 µM (≈ 1.51 µg/mL)
MIC (Enterococcus faecalis): 1.2 µM (≈ 3.02 µg/mL)
MIC (Escherichia coli): 1.2 µM (≈ 3.02 µg/mL)
MIC (Klebsiella pneumoniae): 0.6 µM (≈ 1.51 µg/mL)
MIC (Pseudomonas aeruginosa): 1.3 µM (≈ 3.27 µg/mL)
MIC (Staphylococcus aureus): 9.9 µM (≈ 24.9 µg/mL)
MIC [4]: 1.2 µM (≈ 3.02 µg/mL)
SMILES: CC[C@H](C)[C@H](NC(=O)CNC(=O)[C@H](CCCN=C(N)N)NC(=O)[C@H](Cc1ccc(O)cc1)NC(=O)[C@H](CC(C)C)NC(=O)[C@H](CCCCN)NC(=O)CNC(=O)[C@H](Cc1ccccc1)NC(=O)[C@@H](N)Cc1c[nH]c2ccccc12)C(=O)N[C@H](C(=O)N[C@@H](CCCCN)C(=O)N[C@H](C(=O)N[C@H](C(=O)N[C@@H](CCCCN)C(=O)N[C@@H](CCCCN)C(=O)N[C@H](C(=O)N[C@@H](CCCCN)C(=O)NCC(=O)N[C@@H](CC(C)C)C(=O)N[C@@H](CC(C)C)C(=O)N[C@@H](CCCCN)C(=O)NCC(=O)O)C(C)C)C(C)C)C(C)C)[C@@H](C)O [WFGKLYRGITKVVKKVKGLLKG]
